According to US10227350B2 (Gilead Sciences, Inc., priority 2016, dated 2019):

Biological target: PI3Kβ (Homo sapiens (Human), UniProt P42338)
Test: TR-FRET enzymatic activity assay, PI3Kβ
Type: biochemical
Conditions: 2× Km ATP, 2 μM PIP2, 30 minutes at 25° C., read-out: IC50-PIP-Beta
Method: The compounds of formula (I) were characterized for their enzymatic activity against the PI3K isoforms. The activities were measured using a time-resolved fluorescence resonance energy transfer (TR-FRET) assay. TR-FRET monitored the formation of 3,4,5-inositol triphosphate molecule that competed with fluorescently labeled PIPS for binding to the GRP-1 pleckstrin homology domain protein.
Class I PI3K isoforms were expressed and purified as heterodimeric recombinant proteins. All assay reagents and buffers for the TR-FRET assay were purchased from Millipore. […] The compounds were added to the assay solution and incubated for 30 minutes at 25° C.

Sequence of PI3Kβ (P42338 whole entry): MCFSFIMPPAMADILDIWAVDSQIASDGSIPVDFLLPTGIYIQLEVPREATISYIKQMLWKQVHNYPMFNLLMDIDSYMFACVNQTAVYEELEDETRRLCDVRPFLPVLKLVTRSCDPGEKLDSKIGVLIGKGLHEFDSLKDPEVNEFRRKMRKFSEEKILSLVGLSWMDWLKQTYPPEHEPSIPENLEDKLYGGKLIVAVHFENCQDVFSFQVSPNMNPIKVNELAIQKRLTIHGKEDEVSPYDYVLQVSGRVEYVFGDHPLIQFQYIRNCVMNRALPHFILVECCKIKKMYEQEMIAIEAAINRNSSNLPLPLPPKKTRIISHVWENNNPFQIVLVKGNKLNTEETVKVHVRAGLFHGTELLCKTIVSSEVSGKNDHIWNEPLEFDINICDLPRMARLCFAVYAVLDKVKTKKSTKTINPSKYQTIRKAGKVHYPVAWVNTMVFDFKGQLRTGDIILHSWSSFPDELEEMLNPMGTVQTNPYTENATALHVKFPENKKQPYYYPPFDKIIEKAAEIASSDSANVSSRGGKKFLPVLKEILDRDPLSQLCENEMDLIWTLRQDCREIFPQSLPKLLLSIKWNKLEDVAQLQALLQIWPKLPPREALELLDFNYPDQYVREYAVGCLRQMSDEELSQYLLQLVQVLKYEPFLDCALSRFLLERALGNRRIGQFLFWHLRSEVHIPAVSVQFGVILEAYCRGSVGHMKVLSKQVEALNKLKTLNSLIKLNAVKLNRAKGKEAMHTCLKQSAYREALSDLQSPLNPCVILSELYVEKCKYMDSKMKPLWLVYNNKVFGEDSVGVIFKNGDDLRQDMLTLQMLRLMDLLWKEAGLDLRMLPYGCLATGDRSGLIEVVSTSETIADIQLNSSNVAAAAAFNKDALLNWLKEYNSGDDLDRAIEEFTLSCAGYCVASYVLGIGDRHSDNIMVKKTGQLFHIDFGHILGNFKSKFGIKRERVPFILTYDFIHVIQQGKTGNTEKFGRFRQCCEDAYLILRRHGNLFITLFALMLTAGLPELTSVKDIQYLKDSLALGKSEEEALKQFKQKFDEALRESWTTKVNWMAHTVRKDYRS
Sequence of PI3Kβ (P27986 whole entry partner): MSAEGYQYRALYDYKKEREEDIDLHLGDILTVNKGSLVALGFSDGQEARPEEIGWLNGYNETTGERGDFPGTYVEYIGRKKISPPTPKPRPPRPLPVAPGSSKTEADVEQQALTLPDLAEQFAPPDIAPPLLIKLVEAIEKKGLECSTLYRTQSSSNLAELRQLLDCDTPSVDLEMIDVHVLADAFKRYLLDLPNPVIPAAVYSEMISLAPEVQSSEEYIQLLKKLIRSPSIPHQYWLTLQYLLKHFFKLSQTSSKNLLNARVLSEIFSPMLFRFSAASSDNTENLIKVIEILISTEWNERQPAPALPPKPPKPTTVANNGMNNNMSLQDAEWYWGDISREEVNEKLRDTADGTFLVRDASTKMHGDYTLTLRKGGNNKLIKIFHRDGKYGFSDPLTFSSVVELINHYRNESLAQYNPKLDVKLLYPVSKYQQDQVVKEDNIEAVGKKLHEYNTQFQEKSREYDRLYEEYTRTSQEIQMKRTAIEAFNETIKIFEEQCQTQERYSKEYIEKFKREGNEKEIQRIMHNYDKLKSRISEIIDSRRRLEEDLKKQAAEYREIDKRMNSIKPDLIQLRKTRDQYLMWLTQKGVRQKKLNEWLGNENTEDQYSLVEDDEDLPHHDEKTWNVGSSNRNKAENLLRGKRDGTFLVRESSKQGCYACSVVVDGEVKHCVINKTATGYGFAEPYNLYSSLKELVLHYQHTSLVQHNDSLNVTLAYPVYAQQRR

| SMILES | IC50 [nM] |
| --- | --- |
| Cc1nc2c(-c3nnc[nH]3)cc(-c3ccnc(C#N)c3)cc2n1-c1ccnc2cccc(F)c12 (single isomer, unassigned) [Example 131, 4-(1-(5-fluoroquinolin-4-yl)-2-methyl-4-(4H-1,2,4-triazol-3-yl)-1H-benzo[d]imidazol-6-yl)picolinonitrile] | 2 |
| Cc1nc2c(-c3nnc[nH]3)cc(-c3ccnc(C#N)c3)cc2n1-c1ccnc2cccc(F)c12 (single isomer, unassigned) [Example 132, 4-(1-(5-fluoroquinolin-4-yl)-2-methyl-4-(4H-1,2,4-triazol-3-yl)-1H-benzo[d]imidazol-6-yl)picolinonitrile] | 54 |
| Cc1nc2c(-c3nnc[nH]3)cc(-c3ccnc(F)c3)cc2n1-c1ccnc2c(F)ccc(F)c12 (single isomer, unassigned) [Example 133, 5,8-difluoro-4-(6-(2-fluoropyridin-4-yl)-2-methyl-4-(4H-1,2,4-triazol-3-yl)-1H-benzo[d]imidazol-1-yl)quinoline] | 2 |
| Cc1nc2c(-c3nnc[nH]3)cc(-c3ccnc(F)c3)cc2n1-c1ccnc2c(F)ccc(F)c12 (single isomer, unassigned) [Example 134, 5,8-difluoro-4-(6-(2-fluoropyridin-4-yl)-2-methyl-4-(4H-1,2,4-triazol-3-yl)-1H-benzo[d]imidazol-1-yl)quinoline] | 400 |
| Cc1nc2c(-c3nnc[nH]3)cc(-c3ccnc(C#N)c3)cc2n1-c1ccnc2c(Cl)ccc(F)c12 (single isomer, unassigned) [Example 135, 4-(1-(8-chloro-5-fluoroquinolin-4-yl)-2-methyl-4-(4H-1,2,4-triazol-3-yl)-1H-benzo[d]imidazol-6-yl)picolinonitrile] | 4 |
| Cc1nc2c(-c3nnc[nH]3)cc(-c3ccnc(C#N)c3)cc2n1-c1ccnc2c(Cl)ccc(F)c12 (single isomer, unassigned) [Example 136, 4-(1-(8-chloro-5-fluoroquinolin-4-yl)-2-methyl-4-(4H-1,2,4-triazol-3-yl)-1H-benzo[d]imidazol-6-yl)picolinonitrile] | 220 |
| Cc1nc2c(-c3nnc[nH]3)cc(-c3ccncc3F)cc2n1-c1ccnc2c(Cl)cccc12 (single isomer, unassigned) [Example 137, 8-chloro-4-(6-(3-fluoropyridin-4-yl)-2-methyl-4-(4H-1,2,4-triazol-3-yl)-1H-benzo[d]imidazol-1-yl)quinoline] | 10 |
| Cc1nc2c(-c3nnc[nH]3)cc(-c3ccncc3F)cc2n1-c1ccnc2c(Cl)cccc12 (single isomer, unassigned) [Example 138, 8-chloro-4-(6-(3-fluoropyridin-4-yl)-2-methyl-4-(4H-1,2,4-triazol-3-yl)-1H-benzo[d]imidazol-1-yl)quinoline] | 99 |
| Cc1nc2c(-c3nnc[nH]3)cc(-c3ccncc3)cc2n1-c1ccnc2c(F)ccc(F)c12 (single isomer, unassigned) [Example 140, 5,8-difluoro-4-(2-methyl-6-(pyridin-4-yl)-4-(4H-1,2,4-triazol-3-yl)-1H-benzo[d]imidazol-1-yl)quinoline] | 540 |
| Cc1cc(-c2cc(-c3nnc[nH]3)c3nc(C)n(-c4ccnc5c(F)ccc(F)c45)c3c2)ccn1 (single isomer, unassigned) [Example 141, 5,8-difluoro-4-(2-methyl-6-(2-methylpyridin-4-yl)-4-(4H-1,2,4-triazol-3-yl)-1H-benzo[d]imidazol-1-yl)quinoline] | 120 |
| Cc1cc(-c2cc(-c3nnc[nH]3)c3nc(C)n(-c4ccnc5c(F)ccc(F)c45)c3c2)ccn1 (single isomer, unassigned) [Example 142, 5,8-difluoro-4-(2-methyl-6-(2-methylpyridin-4-yl)-4-(4H-1,2,4-triazol-3-yl)-1H-benzo[d]imidazol-1-yl)quinoline] | 11 |
| Cc1nc2c(C(=O)O)cc(-c3ccncc3)cc2n1-c1ccnc2c(Cl)cccc12 [Example 1] | 34 |
| Cc1nc2c(C(=O)O)cc(-c3ccnc(N)n3)cc2n1-c1ccnc2c(Cl)cccc12 [Example 2] | 13 |
| Cc1nc2c(C(=O)O)cc(-c3ncnc4[nH]cnc34)cc2n1-c1ccnc2c(Cl)cccc12 [Example 3] | 2800 |
| Cc1nc2c(C(=O)O)cc(-c3ccnc(N)c3F)cc2n1-c1ccnc2c(F)ccc(F)c12 [Example 4, 6-(2-amino-3-fluoropyridin-4-yl)-1-(5,8-difluoroquinolin-4-yl)-2-methyl-1H-benzo[d]imidazole-4-carboxylic acid] | 20 |
| NC(=O)c1cc(-c2ccncc2)cc2c1ncn2-c1ccnc2c(Cl)cccc12 [Example 5, 1-(8-chloroquinolin-4-yl)-6-pyridin-4-ylbenzimidazole-4-carboxamide] | 86 |
| Cc1nc2c(C(N)=O)cc(-c3ccncc3)cc2n1-c1ccnc2c(F)ccc(F)c12 [Example 6, 1-(5,8-difluoroquinolin-4-yl)-2-methyl-6-pyridin-4-ylbenzimidazole-4-carboxamide] | 36 |
| Cc1cc(-n2c(C)nc3c(C(N)=O)cc(-c4ccncc4)cc32)c2cccc(Cl)c2n1 [Example 7, 1-(8-chloro-2-methylquinolin-4-yl)-2-methyl-6-pyridin-4-ylbenzimidazole-4-carboxamide] | 16 |

| SMILES | IC50 [nM] |
| --- | --- |
| Cc1nc2c(C(N)=O)cc(-c3ccncc3)cc2n1-c1ccnc2cccc(F)c12 [Example 8, 1-(5-fluoroquinolin-4-yl)-2-methyl-6-pyridin-4-ylbenzimidazole-4-carboxamide] | 82 |
| Cc1cccc2nccc(-n3c(C)nc4c(C(N)=O)cc(-c5ccncc5)cc43)c12 [Example 9, 2-methyl-1-(5-methylquinolin-4-yl)-6-pyridin-4-ylbenzimidazole-4-carboxamide] | 950 |
| Cc1cc(-n2c(C)nc3c(C(N)=O)cc(-c4ccncc4)cc32)c2ccccc2n1 [Example 10, 2-methyl-1-(2-methylquinolin-4-yl)-6-pyridin-4-ylbenzimidazole-4-carboxamide] | 1600 |
| Cc1nc2c(C(N)=O)cc(-c3ccncc3)cc2n1-c1ccnc2c(Cl)ccc(F)c12 [Example 11, 1-(8-chloro-5-fluoroquinolin-4-yl)-2-methyl-6-pyridin-4-ylbenzimidazole-4-carboxamide] | 3 |
| NC(=O)c1cc(-c2ccncc2)cc2c1nc(C1COC1)n2-c1ccnc2c(Cl)cccc12 [Example 12, 1-(8-chloroquinolin-4-yl)-2-(oxetan-3-yl)-6-pyridin-4-ylbenzimidazole-4-carboxamide] | 340 |
| Cc1nc2c(C(N)=O)cc(-c3ccncc3)cc2n1-c1ccnc2c(Cl)cccc12 [Example 13, 1-(8-chloroquinolin-4-yl)-2-methyl-6-pyridin-4-ylbenzimidazole-4-carboxamide] | 15 |
| Cc1nc2c(C(N)=O)cc(-c3ccncc3F)cc2n1-c1ccnc2c(Cl)cccc12 [Example 14, 1-(8-chloroquinolin-4-yl)-6-(3-fluoropyridin-4-yl)-2-methylbenzimidazole-4-carboxamide] | 62 |
| Cc1cc(-c2cc(C(N)=O)c3nc(C)n(-c4ccnc5c(Cl)cccc45)c3c2)ccn1 [Example 15, 1-(8-chloroquinolin-4-yl)-2-methyl-6-(2-methylpyridin-4-yl)benzimidazole-4-carboxamide] | 150 |
| Cc1nc2c(C(N)=O)cc(-c3ccnc(C#N)c3)cc2n1-c1ccnc2c(F)ccc(F)c12 [Example 16, 6-(2-cyanopyridin-4-yl)-1-(5,8-difluoroquinolin-4-yl)-2-methylbenzimidazole-4-carboxamide] | 51 |
| Cc1nc2c(C(N)=O)cc(-c3ccnc(N)c3)cc2n1-c1ccnc2c(Cl)ccc(F)c12 [Example 18, 6-(2-aminopyridin-4-yl)-1-(8-chloro-5-fluoroquinolin-4-yl)-2-methylbenzimidazole-4-carboxamide] | 23 |
| Cc1nc2c(C(N)=O)cc(-c3ccnc(N)n3)cc2n1-c1ccnc2c(Cl)cccc12 [Example 19, 6-(2-aminopyrimidin-4-yl)-1-(8-chloroquinolin-4-yl)-2-methylbenzimidazole-4-carboxamide] | 12 |
| Cc1nc2c(C(N)=O)cc(-c3ncnc4[nH]cnc34)cc2n1-c1ccnc2c(Cl)cccc12 [Example 20, 1-(8-chloroquinolin-4-yl)-2-methyl-6-(9H-purin-6-yl)benzimidazole-4-carboxamide] | 1100 |
| Cc1nc2c(C(N)=O)cc(-c3cc(N)ncn3)cc2n1-c1ccnc2c(Cl)cccc12 [Example 21, 6-(6-aminopyrimidin-4-yl)-1-(8-chloroquinolin-4-yl)-2-methylbenzimidazole-4-carboxamide] | 1300 |
| Cc1nc2c(C(N)=O)cc(-c3cc(N)nc(N)n3)cc2n1-c1ccnc2c(Cl)cccc12 [Example 22, 1-(8-chloroquinolin-4-yl)-6-(2,6-diaminopyrimidin-4-yl)-2-methylbenzimidazole-4-carboxamide] | 1100 |
| Cc1nc2c(C(N)=O)cc(-c3ccnc(N)c3)cc2n1-c1ccnc2c(Cl)cccc12 [Example 23, 6-(2-aminopyridin-4-yl)-1-(8-chloroquinolin-4-yl)-2-methyl-1H-benzo[d]imidazole-4-carboxamide] | 96 |
| NC(=O)c1cc(-c2ccnc(N)c2F)cc2c1nc(C1CC1)n2-c1ccnc2c(Cl)ccc(F)c12 [Example 25] | 6 |
| Cc1nc2c(C(N)=O)cc(-c3ccnc(N)c3F)cc2n1-c1ccnc2c(F)ccc(F)c12 [Example 26, 6-(2-amino-3-fluoropyridin-4-yl)-1-(5,8-difluoroquinolin-4-yl)-2-methyl-1H-benzo[d]imidazole-4-carboxamide] | 13 |
| Clc1cccc2c(-n3cnc4c(-c5ncn[nH]5)cc(-c5ccncc5)cc43)ccnc12 [Example 27, 8-chloro-4-[6-pyridin-4-yl-4-(1H-1,2,4-triazol-5-yl)benzimidazol-1-yl]quinoline] | 5 |
